Test results as given in patent publication US12358892B2, “Metalloenzyme inhibitors for treating cancers, Alzheimer's disease, hemochromatosis, and other disorders” (Miralogx LLC, priority 2020, dated 2025).
Entries after “also recorded” stand apart in the source; their conditions may differ.

System: NCI-H1299 NSCLC cell line
Assay: BioMAP Oncology NSCLC panel (StroNSCLC and VascNSCLC systems)
Type: cell-based, human
Excerpt: The BioMAP® oncology system used in this Example is a coculture of primary human immune cells with primary tissue cells in the presence of the NSCL cells. In particular, The BioMAP® Oncology NSCLC panel models the interactions between the immune-stromal (fibroblasts) and immune-vascular (endothelial cells) environments in the context of non-small lung cancer (NCI-H1299 NSCLC cell line). The interactions between tumor cells, stimulated immune cells (peripheral blood mononuclear cells [PBMC]), and the host stromal network (human neonatal dermal fibroblasts [HDFn]) are captured in the StroNSCLC system. In parallel, the VascNSCLC system captures the interactions between tumor cells, activated immune cells and the vascular tissue (human umbilical vein endothelial cells [HUVEC]). The biomarkers selected for the BioMAP® Non-small Cell Lung Cancer (NSCLC) panel inform on activities related to inflammation, immune-function, tissue remodeling and metastasis in the context of a host tumor-microenvironment.
A signature BioMAP® profile that is reflective of the changes in protein biomarker readouts within an individual system is generated for each test agent. Biomarker readouts selected for therapeutic and biological relevance are predictive for disease outcomes or specific drug effects, and have been validated using agents with known clinical efficacy. Each readout is measured quantitatively by immune-based receptors, cytokines, chemokines, matrix molecules and enzymes. In total, the 42 biomarker readouts in the NSCLC panel capture the biological changes that occur within the physiological context of each particular BioMAP® system.
The BioMAP® Non-small Cell Lung Cancer (NSCLC) panel allows a focused in vitro evaluation of the impact of an agent in a model system that includes the hierarchical signaling networks that exist between interacting pathways and cells in a disease relevant setting. To represent the changes that are occurring in these complex systems, biomarker readouts with the ability to integrate and distinguish changes in different regulatory networks have been selected.
Data analysis of the results was performed as described in detail above in Example 3.1. Briefly, biomarker activities are annotated when at least one concentration of the test agent is outside of the significance envelope with an effect size >20% compared to the vehicle control (|log 10 ratio|>0.1) and a p-value <0.01. Cytotoxic conditions are noted when total protein levels decrease by more than 50% (log 10 ratio of SRB <−0.3). Biomarker key activities are described as modulated if these activities increase in some systems, but decrease in others.

[1] = 7.4 μM, 22 μM, 67 μM, Angiogenesis related activities
[2] = 7.4 μM, 22 μM, 67 μM, Immune-related activities
[3] = 7.4 μM, 22 μM, 67 μM, Inflammation related activities
[4] = 7.4 μM, 22 μM, 67 μM, Matrix remodeling activities

**Q.** How did the “Decreased activity: uPA” value [1] turn out when C1=NC(c2cncc(C3CCC=N3)c2)CC1 (stereo not shown) [3,5-bis(3,4-dihydro-2H-pyrrol-2-yl)pyridine] was run?
**A.** decreased and uPA

**Q.** What about the “Increased activity: tPA” value [1] of the same compound?
**A.** increased and tPA

**Q.** What about the “Decreased Activity: sIL-6” value [2] of the same compound?
**A.** decreased

**Q.** And the “Decreased activity: sGranB” value [2]?
**A.** decreased; also recorded: sGranB

**Q.** What about the “Decreased activity: sIFNγ” value [2] of the same compound?
**A.** decreased; also recorded: SIFNG

**Q.** What about the “Decreased activity: sIL-2” value [2] of the same compound?
**A.** decreased

**Q.** What about the “Decreased activity: sIL-4” value [2] of the same compound?
**A.** decreased; also recorded: SIL-4

**Q.** And the “Decreased activity: sIL-10” value [2]?
**A.** decreased

**Q.** What about the “Decreased activity: sIL-13” value [2] of the same compound?
**A.** decreased

**Q.** What about the “Decreased activity: sIL-17A” value [2] of the same compound?
**A.** decreased; also recorded: SIL-17A

**Q.** And the “Decreased Activity: sTNFα” value [3]?
**A.** decreased; also recorded: STNFa

**Q.** What about the “Decreased activity: VCAM-1” value [3] of the same compound?
**A.** decreased; also recorded: VCAM-1

**Q.** What about the “Decreased activity: sMDC” value [3] of the same compound?
**A.** decreased

**Q.** And the “Increased activity: IP-10” value [3]?
**A.** increased; also recorded: IP-10

**Q.** What about the “Increased activity: Collagen III” value [4] of the same compound?
**A.** increased; also recorded: Col-III

**Q.** And the “Increased activity: EGFR” value [4]?
**A.** increased and EGFR

**Q.** What about the “Increased activity: HGF” value [4] of the same compound?
**A.** increased and HGF

**Q.** And the annotated readouts (BioMAP Oncology NSCLC Panel)?
**A.** 21

**Q.** What about the annotated activities (StroNSCLC system) of the same compound?
**A.** 16

**Q.** What about the annotated activities (VascNSCLC system) of the same compound?
**A.** five

**Q.** What about the cytotoxicity (at 200 μM) of the same compound?
**A.** cytotoxic

**Q.** What about the “cytotoxicity in the VascNSCLC system” value (at 200 μM, VascNSCLC system) of the same compound?
**A.** detectable cytotoxicity
